# Measured values reported in patent US4882359A, “Azacycloalkane derivatives, absorption promoters containing the derivatives as the effective ingredient and external preparations containing the absorption promoters” (priority 1986, dated 1989).
# Where two headings read alike, the source gives them in different places.
# Columns and labels:
# glucose level in blood [1] = experiment: Percutaneous absorption of glibenclamide: glucose level in blood of glucose-loaded rats; format: in vivo, Wistar-strain male rats; conditions: for Glucose level: glibenclamide 0.6 wt.% solution on dorsal skin, two hours after s.c. 20% glucose; for Inhibition rate: glucose level, relative to control group A and normal group
# Description: There were prepared control and test solutions having the following respective formulations (Table 8): […]
# In the tests, there were used groups each consisting of four Wistar-strain male rats which weighed about 200 to 250 g and abstained from food for 24 hours.
# Each of the control solutions A and B and the test solution indicated in the above Table 8 was applied to the dorsal skins, shorn by an electric clipper or shaver, of the rats of one group in an amount of 175 μl/2.5×2.5 cm^2 and then sealed up. Three hours after sealing up, 1.5 ml of 20% glucose was subcutaneously injected into said rats. Two hours after the glucose injection, the blood of the rats was collected and measured for glucose level in blood.
# For comparison, the above procedure was followed except that azone was substituted for the compound of Example 12 in the test solution.
# For further comparison, the blood of rats of one group which had been subjected only to 24 hours' abstinence from food (this group being hereinafter referred to as "normal group"), was measured for glucose level in blood. The rat groups to which the control solution A, the control solution B and the test solution were applied, are hereinafter referred to as "control group A", "control group B" and "test group", respectively.
# glucose level in blood [2] = experiment: Rectal absorption of insulin from suppository: glucose level in blood of rabbits; format: in vivo, male rabbits; conditions: insulin suppository 0.3 g/kg rectal, 3% promoter where used
# Description: There were prepared the following suppositories for use in normal, control and test groups, respectively, each group consisting of five male rabbits weighing 2.5 to 3.5 kg each.
# The three suppositories were into the rectums of the rabbit groups in an amount of 0.3 g suppository/kg, respectively. Thereafter, blood was collected from the rabbits through their ear vein three times with the lapse of time to measure the three collected blood samples for glucose level in blood by a glucose oxidase method. […] The results are indicated in terms of a change in glucose level in blood with respect to the glucose level in blood prior to the administration of the suppositories.
# [3] = system: dorsal skin of Japanese-native rabbits; experiment: Primary skin irritation test (Draize's method); format: in vivo; set-up: key to Average irritation score, 24 hours / Average irritation score, 48 hours / Average irritation score, 72 hours: Draize points: 0-2 mild, 2-6 moderate, 6-8 severe irritation; conditions: for Average irritation score, 24 hours: 3% solution in polyethylene glycol 300, 24 hours after removal of plaster; for Average irritation score, 48 hours: 3% solution in polyethylene glycol 300, 48 hours after removal of plaster; for Average irritation score, 72 hours: 3% solution in polyethylene glycol 300, 72 hours after removal of plaster; for Overall evaluation (skin irritation): graded from irritation scores at 24, 48 and 72 hours
# Description: As one of tests on the compounds of this invention for their topical toxicity, a primary skin irritation test was made on skins using rabbits as the subjects. More particularly, an adhesive plaster for use in batch tests, to which 100 μl of a 3% test solution of each of the compounds of Examples 12, 37, 57 and 73 of this invention in 100 ml of polyethylene glycol 300 had dropwise been applied, was applied to the hair-shorn dorsal skin of three Japanese-native rabbits weighing 2.5 to 3.0 kg each and then sealed up on the dorsal skin for 24 hours. The rabbits were evaluated three times for their dorsal skin irritative reaction 24, 48 and 72 hours after removal of the plaster by using a method in accordance with the Draize's method.
# The results are as shown in Table 18 in which the overall evaluation is represented by the following equation. [formula] and is graded into mild irritation (0-2 points), moderate irritation (2-6 points) and severe irritation (6-8 points).
# [4] = for Activity (phenol red permeation): relative to Control (Vehicle) = 1.0
# Description: There were investigated the effects of the compound of this invention on the percutneous penetration of phenol red which is difficult to be penetrated using the dorsal skin of female hairless mice (each 9 weeks old) by a diffusion cell method which comprised adding 0.5 ml of a sodium chloride injection containing 2 mM of phenol red to the donor side and measuring the amount of phenol red permeated into the receptor layer by high-pace optimal densitometric meter (559 nm).
# in vivo = conditions: rat
# [5] = Percutaneous absorption of pindolol in rats, serum concentration by HPLC; format: in vivo, Wistar-strain male rats; conditions: relative to Control (Vehicle) = 1.0 of the same series in Table 5
# Description: There were provided groups each consisting of four Wistar-strain male rats each weighing 200 to 250 g and having their dorsal skin hair shorn with an electric shaver.
# Each of the test solutions (pindolol-containing preparations) was applied to the shorn dorsal skin of test rats of one of the groups in an amount of 150 μl/2.5×2.5 cm^2 and then sealed up. Three hours after the application of the test solution, the blood of the test rats was collected and measured for serum concentration of pindolol by HPLC.
# For comparison, the above procedure was followed except that there was used a control solution which was the same as said test solution except for non-use of any compounds of this invention, and also followed using a comparative test solution which was the same as the test solution except for the substitution of a comparative compound for the compound of this invention.
# [6] = Skin penetration of pindolol from test solution, diffusion cell method; format: in vitro ADME, female hairless mice
# [7] = Skin penetration of 5-FU from test solution, diffusion cell method; format: in vitro ADME, female hairless mice
# [8] = Skin penetration of various drugs from test solution, diffusion cell method; format: in vitro ADME, female hairless mice
# [9] = Rectal absorption of antibiotics from suppositories, serum concentration by HPLC; format: in vivo, male rabbits; conditions: relative to Control (Vehicle) = 1.0, equals AUC ratio
# Description: There was prepared the following suppositories of antibiotics for use in control and test groups, respectively, each group consisting of five male rabbits weighing 2.5 to 3.5 kg each.
# [10] = Rectal absorption of indomethacin and 5-FU from suppositories; format: in vivo, rabbits
# Description: Each of male rabbits was fasted for 24 hrs prior to the following Experiment. The two suppositories were into the rectums of the rabbit groups in an amount of 0.3 g suppository/kg, respectively. Thereafter, blood was collected from the rabbits through their ear vein to measure the collected blood samples for the serum concentration of antibiotic by HPLC.
# There was prepared test suppositories having the following formulations: […]
# The same procedure of Example 151 was followed except that the above suppositories were used and that 3 or 4 rabbits were used in each group.
# [11] = relative to Control (Vehicle) = 1.0; equals ratio of 48 hrs values
# Description: There were investigated the effects of the compound of this invention on the percutaneous penetration of ketoprofen using the dorsal skin of female hairless mice (each 9 weeks old) by a diffusion cell method which comprised adding 0.5 ml of said test solution to the donor side and measuring the amount of ketoprofen permeated into the receptor layer by performance liquid chromatography (HPLC). For comparison, the above procedure was followed except that a control solution containing no compound of this invention was substituted for said test solution containing the compound of this invention.
# [12] = hydrophylic ointment, relative to Control (Vehicle) = 1.0
# [13] = gel ointment, relative to Control (Vehicle) = 1.0
# [14] = acryl tape, relative to Control (Vehicle) = 1.0
smiles,measurement,setting,value
"CCCCCCCCCCCCN1CCCCCC1=O [Azone, 1-n-dodecylazacycloheptane-2-one, reference compound]",Glucose level,glucose level in blood [1],133 ± 13 mg/dL
same,Inhibition rate,glucose level in blood [1],25.0%
same,"Changes of glucose level to the initial, 0.5 hr",glucose level in blood [2],-4 mg/dL
same,"Changes of glucose level to the initial, 1 hr",glucose level in blood [2],+2 mg/dl
same,"Changes of glucose level to the initial, 3 hrs",glucose level in blood [2],+1 mg/dl
same,"Average irritation score, 24 hours",[3],3.8 ± 1.3
same,"Average irritation score, 48 hours",[3],3.8 ± 1.7
same,"Average irritation score, 72 hours",[3],5.5 ± 1.9
same,Overall evaluation (skin irritation),[3],Moderate (moderate irritation (2-6 points))
same,irritating actions on the skins (in words),"[3]; rabbit, in vivo",moderate grade irritating actions
same,"Cumulative amount of phenol red permeated, 24 hrs later","[4]; 3.0 wt.% test compound, phenol red, 24 hrs",8.4 ± 7.6 µM
same,"Cumulative amount of phenol red permeated, 48 hrs later","[4]; 3.0 wt.% test compound, phenol red, 48 hrs",14.5 ± 0.7 µM
same,Activity (phenol red permeation),[4],24.2
same,LD50 at 168 h,in vivo; po,> 5000 mg/kg
same,LD50 at 168 h,in vivo; sc,> 5000 mg/kg
CCCCCCCCCCSCCN1CCCC1=O [Example 12],Activity (serum concentration of pindolol),[5],47.8
same,"Cumulative amount of pindolol permeated, 24 hrs later",[6],50.0 ± 7.0 µM
same,"Cumulative amount of pindolol permeated, 48 hrs later",[6],127.6 ± 4.8 µM
same,Activity (pindolol permeation),"[6]; test solution, relative to Control (Vehicle) = 1.0",34.5
same,Glucose level,glucose level in blood [1],115 ± 4 mg/dL
same,Inhibition rate,glucose level in blood [1],46.4%
same,"Cumulative amount of 5-FU permeated, 24 hrs later","[7]; 3.0 wt.% test compound, 5-FU 1.8 wt.% in ethanol/water, 24 hrs",465 ± 83 µM
same,"Cumulative amount of 5-FU permeated, 48 hrs later","[7]; 3.0 wt.% test compound, 5-FU 1.8 wt.% in ethanol/water, 48 hrs",963 ± 22 µM
same,Activity (5-FU permeation),[7]; relative to Control (Vehicle) = 1.0,4.7
same,Activity (skin penetration),"[8]; drug: 1,25-Dihydroxy VD3",5.4
same,Activity (skin penetration),[8]; drug: 8-Bromocyclic AMP,50.3
same,Activity (skin penetration),[8]; drug: Chlordiazepoxide,4.8
same,Activity (skin penetration),[8]; drug: Clonidine,6.3
same,Activity (skin penetration),[8]; drug: Clotrimazole,3.2
same,Activity (skin penetration),[8]; drug: Diazepam,3.5
same,Activity (skin penetration),[8]; drug: Erythromycin,4.5
same,Activity (skin penetration),[8]; drug: Estradiol,2.0
same,Activity (skin penetration),[8]; drug: Ketotifen,3.8
same,Activity (skin penetration),[8]; drug: Lidocain,10.3
same,Activity (skin penetration),[8]; drug: Nicotinic acid,15.3
same,Activity (skin penetration),[8]; drug: Nifedipine,6.2
same,Activity (skin penetration),[8]; drug: Prostaglandin E2,4.8
same,Activity (skin penetration),[8]; drug: Scopolamin,2.4
same,Activity (skin penetration),[8]; drug: Testosterone,2.5
same,Activity (skin penetration),[8]; drug: Triamcinolone,5.5
same,Activity (skin penetration),[8]; drug: p-Aminobenzoic acid,12.3
same,"Changes of glucose level to the initial, 0.5 hr",glucose level in blood [2],-30 mg/dL
same,"Changes of glucose level to the initial, 1 hr",glucose level in blood [2],-29 mg/dL
same,"Changes of glucose level to the initial, 3 hrs",glucose level in blood [2],-22 mg/dL
same,Activity (rectal absorption),[9]; ABPC suppository,6.3
same,Activity (rectal absorption),[9]; CET suppository,3.0
same,Activity (rectal absorption),[10]; drug: 5-FU,4.8
same,Activity (rectal absorption),[10]; drug: Indomethacin,2.5
same,"Average irritation score, 24 hours",[3],0.3 ± 0.3
same,"Average irritation score, 48 hours",[3],0.3 ± 0.3
same,"Average irritation score, 72 hours",[3],0.5 ± 0.5
same,Overall evaluation (skin irritation),[3],Mild (mild irritation (0-2 points))
same,Activity (ketoprofen permeation),[11],3.3
same,Activity (indomethacin permeation),[12],3.2
same,Activity (indomethacin permeation),[13],18.4
same,Activity (pindolol permeation),[14],3.9
same,Activity (phenol red permeation),[4],86.5
same,LD50 at 168 h,in vivo; po,> 5000 mg/kg
same,LD50 at 168 h,in vivo; sc,> 5000 mg/kg
